Assay results as given in patent US20070060636A1, “High enantiomeric purity dexanabinol for pharmaceutical compositions” (priority 2002, published 2007).

What was measured:
[1] = 28-day multiple dose study, monkey; assay type: in vivo, monkeys; settings: for AUC(0-inf) / Cmax: plasma, 25 mg/kg i.v. daily, final dose Day 28 (NOAEL); for AUC∞ Ratio to Phase I / Cmax Ratio to Phase I / AUC∞ Ratio to Phase II / Cmax Ratio to Phase II: 25 mg/kg Day 28; for AUC∞ Ratio to Phase I / Cmax Ratio to Phase I: vs human 150 mg Phase I; for AUC∞ Ratio to Phase II / Cmax Ratio to Phase II: vs human 150 mg Phase II
Protocol: (§1) The pharmacokinetics of dexanabinol of high enantiomeric purity formulated in CREMOPHOR EL®:ethanol as described in Example 4 were investigated in rats, rabbits, and monkeys following intravenous administration of single doses, and 14 and 28 days of repeated dosing. Human pharmacokinetics was studied during Phase I and Phase II clinical studies. Dexanabinol used in the pharmacokinetic studies was formulated as drug concentrates of 50 and 100 mg/ml and diluted with sterile 0.9% NaCl solution prior to intravenous (i.v.) administration to the desired final doses. Determination of dexanabinol concentrations in plasma and brain extracts was carried out using a validated Gas Chromatography-Mass Spectra (GC-MS) assay following solid phase extraction of the drug and derivatization. The limit of quantitation of the assay is 0.1 ng/ml.
(§2) Pharmacokinetic parameters were estimated by a non-compartmental method using WinNonlin Professional version 3.2 (Pharsight Corp., Mountain View, Calif.). The maximum plasma concentration (Cmax), when the drug is administered by infusion, is the concentration at the end of infusion. The Cmax following intravenous bolus administration is the value estimated by the software to be the concentration at t=0. The terminal slope (X) was estimated by linear regression through the last time points and used to calculate the terminal half-life (t1/2) from the following equation: t1/2=0.693/λ The area under the curve from time of dosing through the last time point (AUCz) was calculated by the linear trapezoid method. The AUC extrapolated to infinity (AUC∞) was calculated from the following equation: AUC∞=AUCz+Cz/λ where Cz is the concentration at the last time point predicted by the linear regression. AUC∞ was normalized for dose (mg/kg) and presented as AUC∞/Dose. Mean residence time (MRT), when the drug is administered by infusion is described by the following equation: MRT=(AUMC/AUC)−(TI)/2 Mean residence time after i.v. bolus administration is described by the following equation: MRT=(AUMC/AUC) where AUMC is the area under the first moment curve and TI is the length of infusion. Plasma clearance (CL), and the apparent volume of distribution at steady state (Vss) were calculated from the following equations: CL=Dose/AUC∞ Vss=MRT×CL
In 14-day multiple dose pharmacokinetic studies, the NOAEL was 15 mg/kg/day in rats and 25 mg/kg/day in rabbits. In a 28-day study in monkeys the NOAEL was 25 mg/kg/day. Cmax and AUC observed following the last dose at the NOAEL in the multiple dose toxicity studies and the ratios of these values to those observed in the Phase I and II studies for the 150 mg dose are shown in Table 7.

[2] = oral bioavailability, hard gelatin capsules, minipig model; assay type: in vivo; settings: plasma, 40 mg/kg
Protocol: The percentage of oral bioavailability was calculated using the following equation: % F=[AUCoral/Doseoral]/[AUCIV/DoseIV] Non-human Pharmacokinetic Studies.
Dexanabinol of high enantiomeric purity (lot # AC9001HU) filled in hard gelatin capsules have shown good oral bioavailability. A pharmacokinetic study for oral bioavailability of dexanabinol in large animals using the minipig model (the best animal model for oral absorption of drugs) was carried out. The animals (n=3) after 8 hours of food deprivation were administered orally with hard gelatin capsules containing dexanabinol of high enantiomeric purity at a dose of 40 mg/kg. Dexanabinol plasma levels were determined using a validated GC-MS assay up to 48 hours following administration. […] Pharmacokinetic analysis was done using the non-compartmental model analysis (WinNonlin software). Linear trapezoidal rule was used to compute AUC and AUMC.

[3] = in vivo; cited from earlier work
[4] = single dose toxicity and pharmacokinetics, rat; assay type: in vivo, Sprague Dawley rats; settings: for AUC(0-inf) / Cmax: Sprague Dawley, plasma, single i.v. 50 mg/kg (NOAEL); for AUC∞ Ratio to Phase I / Cmax Ratio to Phase I / Cmax Ratio to Phase II: single i.v. 50 mg/kg; for AUC∞ Ratio to Phase I / Cmax Ratio to Phase I: vs human 150 mg Phase I; for Cmax Ratio to Phase II: vs human 150 mg Phase II
Protocol: as §1, §2
Table 6 summarizes the maximum plasma concentration (Cmax) and the area under the plasma concentration versus time curve (AUC) observed at the NOAEL doses cited above, as well as the animal to human exposure ratios (ER) for dexanabinol of high enantiomeric purity, expressed as the ratio of the pharmacokinetic (PK) parameter to that observed for a 150 mg dose in a Phase I study in human volunteers and in Phase II study in patients suffering from severe traumatic brain injury (TBI).

[5] = test system: inflammatory bowel disease (IBD) model; test: IBD induced by rectal 5% acetic acid solution; assay type: in vivo, Sprague Dawley male rats
Protocol: The pharmacological activity of dexanabinol of high enantiomeric purity in enema formulation was also tested and compared to oral and i.p. formulations, wherein oral delivery was performed using a hard gelatin capsule and i.p. delivery was performed using the CREMOPHOR EL®:ethanol formulation. IBD was induced in Sprague Dawley male rats, by rectal administration of a 5% acetic acid solution. The rectum was then washed with saline and animals were clinically observed (body weight, stool consistency and blood in stool) daily for 7 days. On the eighth day, the animals were sacrificed, their colon opened and gross pathology lesions were recorded (hyperemia, edema, number of erosions, ulcers, perforations and adhesions). Animals, at least six per group, were treated rectally (by enema) with either dexanabinol (5, 10, 20 or 40 mg/kg/day) or its vehicle or by oral gavage (20, 40, or 80 mg/kg/day or vehicle). Administration of acetic acid caused a decrease in body weight (up to 20%), changes in stool consistency (diarrhea) and appearance of blood in the stool 24 hours later. Spontaneous clinical healing was detected as animals regained weight and blood was no more evident in the stool. In the gross pathology scale, rectal dexanabinol 10 mg/kg had the best effect (more than 50% reduction of score) compared to its vehicle (p<0.05). […] The rectal dexanabinol dose of 10 mg/kg was pharmacologically equivalent to 20 mg/kg i.p. dose and 80 mg/kg oral dose.

[6] = both sexes, iv, monkey male & female

CCCCCCC(C)(C)c1cc(O)c2c(c1)OC(C)(C)[C@H]1CC=C(CO)C[C@H]21 [dexanabinol, 1,1-dimethylheptyl-(3S,4S)-7-hydroxy-Δ^6-tetrahydrocannabinol]
AUC(0-inf) [1, 6]: 193 µg·h/mL
Cmax [1, 6]: 162 µg/mL
AUC∞ Ratio to Phase I ([1]; monkey female): 55.5
Cmax Ratio to Phase I ([1]; monkey female): 32.2
AUC∞ Ratio to Phase II ([1]; monkey female): 120.0
Cmax Ratio to Phase II ([1]; monkey female): 81.9
AUC∞ Ratio to Phase I ([1]; monkey male & female): 60.2
Cmax Ratio to Phase I ([1]; monkey male & female): 32.4
AUC∞ Ratio to Phase II ([1]; monkey male & female): 130.2
Cmax Ratio to Phase II ([1]; monkey male & female): 82.5
AUC∞ Ratio to Phase I ([1]; monkey male): 64.9
Cmax Ratio to Phase I ([1]; monkey male): 32.6
AUC∞ Ratio to Phase II ([1]; monkey male): 140.4
Cmax Ratio to Phase II ([1]; monkey male): 83.0
NOAEL at 28 days ([1]; monkey, in vivo, iv, 28-day study i.v.): 25 mg/kg/day
AUC(0-inf) ([1]; iv, monkey female): 178 µg·h/mL
Cmax ([1]; iv, monkey female): 161 µg/mL
AUC(0-inf) ([1]; iv, monkey male): 208 µg·h/mL
Cmax ([1]; iv, monkey male): 163 µg/mL
AUC ([2]; n=3): 4.21 µg·h/mL
Cmax ([2]; n=3): 0.271 ± 0.102 µg/mL
MRT ([2]; n=3): 12.1 ± 1.15 h
half-life ([2]; n=3): 7.47 ± 1.06 h
bioavailability ([2]; oral, n=3, read-out: % F (oral bioavailability compared to i.v. injection)): ~12%
cardiovascular effects [3]: devoid of cardiovascular effects
AUC(0-inf) ([4]; iv, rat female): 173 µg·h/mL
Cmax ([4]; iv, rat female): 38.8 µg/mL
AUC(0-inf) ([4]; iv, rat male): 67.5 µg·h/mL
Cmax ([4]; iv, rat male): 102 µg/mL
NOAEL ([4]; Sprague-Dawley, rat, in vivo, iv, single dose i.v., read-out: no observed adverse effect level (NOAEL)): 50 mg/kg
AUC∞ Ratio to Phase I ([4]; rat female): 54.0
Cmax Ratio to Phase I ([4]; rat female): 7.7
Cmax Ratio to Phase II ([4]; rat female): 19.7
AUC∞ Ratio to Phase I ([4]; rat male): 21.0
Cmax Ratio to Phase I ([4]; rat male): 20.4
Cmax Ratio to Phase II ([4]; rat male): 51.9
i.p. dose pharmacologically equivalent to rectal dose of 10 mg/kg ([5]; i.p., CREMOPHOR EL:ethanol formulation): 20 mg/kg
oral dose pharmacologically equivalent to rectal dose of 10 mg/kg ([5]; oral): 80 mg/kg
clinical disease severity compared to the vehicle ([5]; rectal 10 mg/kg): reduced also the clinical disease severity
reduction of gross pathology score compared to vehicle ([5]; rectal (enema) 10 mg/kg, p<0.05): more than 50%
